Experimental data from US20210070748A1, “INHIBITORS OF BRUTONS TYROSINE KINASE” (Pharmacyclics LLC, priority 2015, published 2021).

Experiments:
Type in all cases: biochemical
[1] = target: T1, BTK-WT (Homo sapiens, UniProt Q06187); experiment: Btk in vitro inhibitory activity (one of Method A TR-FRET, Method B electrophoretic mobility shift, Method C radiometric filter binding); conditions: D-compounds panel data; read-out: IC50 BTK-WT
T1 construct: purified from insect cells as a full-length construct containing an N-terminal 6X-His tag; His6 (N); made in house; host or cells: insect cells (baculovirus Sf21 in Method B)

[2] = target: LCK (Homo sapiens, UniProt P06239); experiment: Inhibition of a panel of kinases, in vitro HotSpot kinase assay: LCK; conditions: D-compounds panel data; 1 μM ATP; read-out: IC50 LCK
[3] = target: EGFR (Homo sapiens, UniProt P00533); experiment: Inhibition of a panel of kinases, in vitro HotSpot kinase assay: EGFR; conditions: D-compounds panel data; 1 μM ATP
Description: (§1) The degree of inhibition of a panel of kinases is determined using the in vitro HotSpot kinase assay (purified enzymes, ^33P-ATP, an appropriate substrate and 1 μM ATP).

[4] = target: SRC (Homo sapiens, UniProt P12931); experiment: Inhibition of a panel of kinases, in vitro HotSpot kinase assay: SRC; conditions: D-compounds panel data; 1 μM ATP
Description: as §1

[5] = target: T2, TEC (Homo sapiens, UniProt P42680); experiment: Inhibition of a panel of kinases, in vitro HotSpot kinase assay: TEC; conditions: D-compounds panel data; 1 μM ATP
T2 sequence (P42680 1-631): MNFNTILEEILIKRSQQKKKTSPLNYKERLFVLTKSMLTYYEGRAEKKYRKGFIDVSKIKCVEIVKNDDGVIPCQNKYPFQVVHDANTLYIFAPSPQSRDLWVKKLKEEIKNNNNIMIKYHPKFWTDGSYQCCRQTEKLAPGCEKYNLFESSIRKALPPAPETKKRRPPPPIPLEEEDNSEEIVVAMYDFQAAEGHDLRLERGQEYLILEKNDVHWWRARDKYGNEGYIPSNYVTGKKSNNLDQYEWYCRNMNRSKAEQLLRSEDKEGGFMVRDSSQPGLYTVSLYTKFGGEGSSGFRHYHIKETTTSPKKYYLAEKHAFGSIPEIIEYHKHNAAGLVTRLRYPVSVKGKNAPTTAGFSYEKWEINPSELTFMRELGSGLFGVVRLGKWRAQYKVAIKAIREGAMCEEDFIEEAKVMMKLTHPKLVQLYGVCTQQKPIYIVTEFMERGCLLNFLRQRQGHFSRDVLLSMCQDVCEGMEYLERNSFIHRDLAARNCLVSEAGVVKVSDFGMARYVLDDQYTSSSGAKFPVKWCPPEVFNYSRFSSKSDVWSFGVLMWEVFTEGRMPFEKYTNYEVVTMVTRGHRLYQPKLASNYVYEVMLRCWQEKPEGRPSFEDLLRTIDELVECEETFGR
Description: as §1

SRC, sequence (P12931 whole entry): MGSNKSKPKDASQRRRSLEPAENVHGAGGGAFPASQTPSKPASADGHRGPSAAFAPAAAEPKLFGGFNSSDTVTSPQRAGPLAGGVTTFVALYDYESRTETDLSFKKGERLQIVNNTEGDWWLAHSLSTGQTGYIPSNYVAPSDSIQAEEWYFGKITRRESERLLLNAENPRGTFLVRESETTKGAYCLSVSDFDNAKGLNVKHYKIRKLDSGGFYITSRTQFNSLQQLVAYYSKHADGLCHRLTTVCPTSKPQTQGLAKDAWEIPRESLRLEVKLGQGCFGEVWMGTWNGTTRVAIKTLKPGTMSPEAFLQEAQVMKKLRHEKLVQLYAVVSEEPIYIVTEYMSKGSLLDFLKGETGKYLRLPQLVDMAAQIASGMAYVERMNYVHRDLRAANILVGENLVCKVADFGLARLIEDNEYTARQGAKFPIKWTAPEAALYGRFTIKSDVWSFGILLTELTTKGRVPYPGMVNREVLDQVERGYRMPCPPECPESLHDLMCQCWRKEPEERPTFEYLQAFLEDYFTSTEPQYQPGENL
T1 sequence (Q06187 whole entry): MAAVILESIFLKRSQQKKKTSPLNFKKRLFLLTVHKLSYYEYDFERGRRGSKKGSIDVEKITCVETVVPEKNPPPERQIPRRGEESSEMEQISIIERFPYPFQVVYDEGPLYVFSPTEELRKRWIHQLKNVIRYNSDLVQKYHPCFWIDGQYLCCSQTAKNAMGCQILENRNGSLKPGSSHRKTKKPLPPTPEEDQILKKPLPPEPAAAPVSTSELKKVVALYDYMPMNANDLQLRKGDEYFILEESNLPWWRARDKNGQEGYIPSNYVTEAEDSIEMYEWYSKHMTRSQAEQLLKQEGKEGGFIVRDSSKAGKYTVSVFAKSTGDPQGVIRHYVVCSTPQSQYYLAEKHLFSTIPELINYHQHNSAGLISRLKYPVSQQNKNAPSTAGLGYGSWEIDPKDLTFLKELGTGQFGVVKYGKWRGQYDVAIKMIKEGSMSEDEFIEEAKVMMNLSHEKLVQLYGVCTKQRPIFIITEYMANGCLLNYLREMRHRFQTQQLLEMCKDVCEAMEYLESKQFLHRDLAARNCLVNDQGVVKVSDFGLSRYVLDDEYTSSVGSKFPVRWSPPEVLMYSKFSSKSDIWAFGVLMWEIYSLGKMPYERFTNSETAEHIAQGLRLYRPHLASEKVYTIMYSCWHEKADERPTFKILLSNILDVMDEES
EGFR, sequence (P00533 25-1210): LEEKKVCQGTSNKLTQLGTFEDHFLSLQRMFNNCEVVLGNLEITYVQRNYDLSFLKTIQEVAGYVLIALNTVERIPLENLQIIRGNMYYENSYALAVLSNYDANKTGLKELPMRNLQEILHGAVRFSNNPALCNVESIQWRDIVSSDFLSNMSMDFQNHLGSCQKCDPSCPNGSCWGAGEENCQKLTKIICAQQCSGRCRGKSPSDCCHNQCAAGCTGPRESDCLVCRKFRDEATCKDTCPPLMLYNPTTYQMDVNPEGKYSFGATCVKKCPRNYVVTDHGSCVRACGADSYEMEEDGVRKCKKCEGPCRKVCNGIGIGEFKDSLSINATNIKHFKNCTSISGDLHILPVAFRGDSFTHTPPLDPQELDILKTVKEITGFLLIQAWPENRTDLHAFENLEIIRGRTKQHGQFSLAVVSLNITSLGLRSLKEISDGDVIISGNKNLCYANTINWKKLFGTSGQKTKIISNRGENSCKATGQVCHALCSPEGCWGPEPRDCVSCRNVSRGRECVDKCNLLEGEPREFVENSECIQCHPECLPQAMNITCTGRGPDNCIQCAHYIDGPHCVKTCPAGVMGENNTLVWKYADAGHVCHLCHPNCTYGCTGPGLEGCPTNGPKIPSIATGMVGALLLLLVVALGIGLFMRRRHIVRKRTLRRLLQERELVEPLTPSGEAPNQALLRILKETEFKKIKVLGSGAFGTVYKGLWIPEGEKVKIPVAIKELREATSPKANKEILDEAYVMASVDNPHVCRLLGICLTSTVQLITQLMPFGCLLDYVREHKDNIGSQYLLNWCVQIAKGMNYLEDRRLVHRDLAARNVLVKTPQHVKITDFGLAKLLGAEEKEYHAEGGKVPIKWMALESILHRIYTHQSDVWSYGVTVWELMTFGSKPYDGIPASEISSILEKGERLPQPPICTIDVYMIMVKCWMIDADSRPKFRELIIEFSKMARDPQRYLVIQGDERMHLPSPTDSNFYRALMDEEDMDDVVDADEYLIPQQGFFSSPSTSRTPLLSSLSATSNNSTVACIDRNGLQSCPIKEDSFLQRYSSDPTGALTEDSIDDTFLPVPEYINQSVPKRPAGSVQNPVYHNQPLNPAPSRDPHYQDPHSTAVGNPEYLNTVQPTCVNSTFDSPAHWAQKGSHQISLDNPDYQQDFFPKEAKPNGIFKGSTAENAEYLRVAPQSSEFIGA
LCK, sequence (P06239 whole entry): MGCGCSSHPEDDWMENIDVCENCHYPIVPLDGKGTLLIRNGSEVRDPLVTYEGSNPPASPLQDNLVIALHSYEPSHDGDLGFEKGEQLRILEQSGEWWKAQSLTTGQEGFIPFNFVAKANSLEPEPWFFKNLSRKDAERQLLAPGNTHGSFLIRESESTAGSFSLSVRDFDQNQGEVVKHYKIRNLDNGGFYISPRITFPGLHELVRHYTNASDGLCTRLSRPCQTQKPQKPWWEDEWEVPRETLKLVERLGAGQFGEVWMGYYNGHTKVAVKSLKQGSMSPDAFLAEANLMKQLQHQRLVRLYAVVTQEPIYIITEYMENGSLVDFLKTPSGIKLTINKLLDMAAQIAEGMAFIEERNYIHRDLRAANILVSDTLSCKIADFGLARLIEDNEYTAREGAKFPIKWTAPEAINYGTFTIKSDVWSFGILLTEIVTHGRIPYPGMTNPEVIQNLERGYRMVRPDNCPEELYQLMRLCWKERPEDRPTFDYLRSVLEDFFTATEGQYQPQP

| Compound | IC50 [1] | IC50 [2] | IC50 [3] | IC50 [4] | IC50 [5] |
| --- | --- | --- | --- | --- | --- |
| CN(C)C(=O)N[C@H]1CCCN(c2cnc(C(N)=O)c(Nc3ccc(C4(C)CCN(C5CCCC5)CC4)cc3)n2)[C@H]1CO [Example D-59, 3-{[4-(1-cyclopentyl-4-methylpiperidin-4-yl)phenyl]amino}-5-[(2R,3S)-3-[(dimethylcarbamoyl)amino]-2-(hydroxymethyl)piperidin-1-yl]pyrazine-2-carboxamide] | 0.1 to 1 µM | 1 to 10 µM | 1 to 10 µM | 1 to 10 µM | > 10 µM |
| CN(C)C(=O)N[C@@H]1CCCN(c2cnc(C(N)=O)c(Nc3ccc(C4(C)CCN(C5CCCC5)CC4)cc3)n2)[C@H]1CO [Example D-60, 3-{[4-(1-cyclopentyl-4-methylpiperidin-4-yl)phenyl]amino}-5-[(2R,3R)-3-[(dimethylcarbamoyl)amino]-2-(hydroxymethyl)piperidin-1-yl]pyrazine-2-carboxamide] | 0.1 to 1 µM | 1 to 10 µM | 1 to 10 µM | 0.1 to 1 µM | 1 to 10 µM |
| CN(C)C(=O)N[C@H]1CCCN(c2cnc(C(N)=O)c(Nc3ccc(C4(C)CCN(C5CCCC5)CC4)cc3)n2)[C@@H]1CO [Example D-61, 3-{[4-(1-cyclopentyl-4-methylpiperidin-4-yl)phenyl]amino}-5-[(2S,3S)-3-[(dimethylcarbamoyl)amino]-2-(hydroxymethyl)piperidin-1-yl]pyrazine-2-carboxamide] | 0.1 to 1 µM | 1 to 10 µM | > 10 µM | 1 to 10 µM | > 10 µM |
| C[C@@H]1[C@H](NC(=O)c2ccc(C3CC3)cc2F)CCCN1c1cnc(C(N)=O)c(Nc2nc3c(s2)CN(C)CC3)n1 [Example D-62, 5-[(2R,3R)-3-(4-cyclopropyl-2-fluorobenzamido)-2-methylpiperidin-1-yl]-3-({5-methyl-4H,5H,6H,7H-[1,3]thiazolo[5,4-c]pyridin-2-yl}amino)pyrazine-2-carboxamide] | 0.1 to 1 µM | > 10 µM | > 10 µM | > 10 µM | 0.1 to 1 µM |
| Cc1csc(Nc2nc(N3CCC[C@@H](NC(=O)c4ccc(C5CC5)cc4F)[C@H]3C)cnc2C(N)=O)n1 [Example D-63, 5-[(2R,3R)-3-(4-cyclopropyl-2-fluorobenzamido)-2-methylpiperidin-1-yl]-3-[(4-methyl-1,3-thiazol-2-yl)amino]pyrazine-2-carboxamide] | 1 to 10 µM | > 10 µM | > 10 µM | > 10 µM | > 10 µM |
| C[C@@H]1[C@H](NC(=O)c2ccc(C3CC3)cc2F)CCCN1c1cnc(C(N)=O)c(Nc2ccc(C3(C)CCN(C4CCCC4)CC3)cc2)n1 [Example D-66, 3-{[4-(1-cyclopentyl-4-methylpiperidin-4-yl)phenyl]amino}-5-[(2R,3R)-3-(4-cyclopropyl-2-fluorobenzamido)-2-methylpiperidin-1-yl]pyrazine-2-carboxamide] | ≤ 0.01 µM | < 0.01 µM | 0.01 to 0.1 µM | ≤ 0.01 µM | ≤ 0.01 µM |
| Cc1cc(Nc2nc(N3CCC[C@@H](NC(=O)N(C)C)[C@H]3CO)cnc2C(N)=O)sn1 [Example D-67, 5-[(2S,3R)-3-[(dimethylcarbamoyl)amino]-2-(hydroxymethyl)piperidin-1-yl]-3-[(3-methyl-1,2-thiazol-5-yl)amino]pyrazine-2-carboxamide] | 0.01 to 0.1 µM | 0.1 to 1 µM | 0.1 to 1 µM | 0.1 to 1 µM | 0.1 to 1 µM |
| Cc1cc(Nc2nc(N3CCC[C@H](NC(=O)N(C)C)[C@@H]3CO)cnc2C(N)=O)sn1 [Example D-68, 5-[(2R,3S)-3-[(dimethylcarbamoyl)amino]-2-(hydroxymethyl)piperidin-1-yl]-3-[(3-methyl-1,2-thiazol-5-yl)amino]pyrazine-2-carboxamide] | 1 to 10 µM | > 10 µM | > 10 µM | 1 to 10 µM | > 10 µM |
